Results from patent US20130090360A1 (priority 2010, published 2013).
Where two headings read alike, the source gives them in different places.

How the values were obtained:
[1] = test system: Pyricuaria oryzae; format: in vivo, Pyricuaria oryzae on rice plants (variety Tainong 67); details: field, natural infection
[2] = test system: Pyricularia oryzae; format: in vivo, Pyricularia oryzae on rice plants (variety Tainong 67); details: field, natural infection

SMILES	Efficacy % 22 days after first application ([1]; application rate 25 g ai/ha) [%]	Efficacy % 22 days after first application ([1]; application rate 50 g ai/ha) [%]	Efficacy % 22 days after first application ([1]; application rate 75 g ai/ha) [%]	Efficacy % 15 days after first application ([2]; application rate 25 g ai/ha) [%]	Efficacy % 15 days after first application ([2]; application rate 50 g ai/ha) [%]	Efficacy % 15 days after first application ([2]; application rate 75 g ai/ha) [%]	Efficacy % 22 days after first application ([1]; application rate 100 g ai/ha) [%]	Efficacy % 22 days after first application ([1]; application rate 200 g ai/ha) [%]	Efficacy % 15 days after first application ([2]; application rate 100 g ai/ha) [%]
Fc1ccc([C@]2(Cn3cncn3)O[C@H]2c2ccccc2Cl)cc1 (racemic) [Epoxiconazole (EPX), epoxiconazole]	1.2	0.0	5.6	17.7	24.1	35.1			
Cc1cccc2sc3nncn3c12 [Tricyclazol, tricyclazole]							5.6	0.0	34.9
